Publication PMC8376931, “Structure activity relationships and the binding mode of quinolinone-pyrimidine hybrids as reversal agents of multidrug resistance mediated by P-gp” (Scientific Reports, 2021)
Like-named read-outs stand apart in the source and are kept apart here.

Tests used:
[1] = test system: Lucena 1 cells; assay: Doxorubicin resistance reversal assay; format: cell-based; settings: for lowest co-administered concentration significantly increasing doxorubicin toxicity: p < 0.05
Experimental: (§1) The cells were incubated at 37 °C at 5% CO2 for 48 h and the same protocol described above was followed. IC50 values of Dox were then obtained.

[2] = test system: K562 cells; assay: MTT cytotoxicity assay in K562; format: cell-based; settings: 48 h
Experimental: (§2) Then 0.5 mg/mL MTT in PBS was added. After additional incubation for 4 h, the formazan crystals obtained were dissolved in DMSO and the absorbance at 595 nm was read on an iMark micro-plate reader (Bio-Rad, USA). IC50 values for cytotoxicity were then calculated as reported[50] using nonlinear regression by GraphPad Prism 7 (Graphpad Software, Inc., San Diego, CA, USA, www.graphpad.com).
as §1

[3] = molecular target: T1, P-gp (Homo sapiens, UniProt P08183); settings: 1 h
Experimental: (§3) The intracellular accumulation of the fluorescent probes, Dox and Rho123, was determined by monitoring its fluorescence intensity using flow cytometry (96-well plate format), as previously reported. The inhibition on the outward transport of these P-gp substrates results in an increased […] fluorescence intensity (MFI). […] Those compounds showing inhibition on P-gp at the maximum tested concentration were further evaluated at serial dilutions to determinate their MECs. […] The plates were then incubated in a 5% CO2 incubator for 1 h at 37 °C. Afterwards, 5 μM Dox was added to each well. The other fluorescent specific substrate of P-gp, Rho123, however, was added at 500 ng/mL to additionally measure the ability of the most promising compounds to block its efflux. Subsequently, cells from both assays were washed twice with cold PBS, and 15,000 events from each sample were analyzed to determine the cell-associated fluorescence. Dead cells were eliminated by means of forward- and side-scatter parameters. […] The blocking of the P-gp transport function was evaluated by the parameter FIR, calculated as the ratio of the MFI of Dox or Rho123 with the addition of the likely inhibitor to the MFI of Dox or Rho123 alone.

[4] = test system: Lucena 1 cells; assay: MTT cytotoxicity assay in Lucena 1; format: cell-based; settings: 48 h
Experimental: as §2, §1

[5] = test system: PBMC; assay: Cytotoxicity on peripheral blood mononuclear cells (MTT); format: cell-based; settings: Homo sapiens, 48 h, PHA 10 μg/mL, read-out: inhibition on proliferation of PBMC
Experimental: (§4) PBMC were isolated from heparinized blood of healthy volunteers by density centrifugation using Ficoll-Hypaque separation. Ethical approval was provided by the Catholic University of Córdoba Research Ethics Board and informed consents were obtained from all donors. Briefly, 1 × 10^5 PBMC/well were incubated with the tested compounds at concentrations ranging from 2.5 to 20 µM in the presence of 10 μg/mL PHA, or with 1% DMSO as control. After 48 h incubation, MTT was added and the same protocol described above was followed to calculate the IC50 values. An erythrocyte hemolysis assay was carried out following previous procedures[8] with the compounds assayed at 2.5 to 20 µM.

[6] = test system: K562 cells; assay: Doxorubicin intracellular accumulation assay (flow cytometry) in K562; format: cell-based; parameters: key: MFI with inhibitor / MFI of Dox alone; settings: 5 μM Dox
Experimental: as §3

[7] = molecular target: T1, P-gp; settings: for minimum effective concentration (MEC), Rho123 accumulation / FIR Rho123 / FIR Rho123 (fold more Rho123 than untreated cells): human, 1 h; for FIR Rho123: 0.62 µM; for FIR Rho123 (fold more Rho123 than untreated cells): 20 µM
Experimental: The intracellular accumulation of the fluorescent probes, Dox and Rho123, was determined by monitoring its fluorescence intensity using flow cytometry (96-well plate format), as previously reported. The inhibition on the outward transport of these P-gp substrates results in an increased […] fluorescence intensity (MFI). […] The plates were then incubated in a 5% CO2 incubator for 1 h at 37 °C. Afterwards, 5 μM Dox was added to each well. The other fluorescent specific substrate of P-gp, Rho123, however, was added at 500 ng/mL to additionally measure the ability of the most promising compounds to block its efflux. Subsequently, cells from both assays were washed twice with cold PBS, and 15,000 events from each sample were analyzed to determine the cell-associated fluorescence. Dead cells were eliminated by means of forward- and side-scatter parameters. […] The blocking of the P-gp transport function was evaluated by the parameter FIR, calculated as the ratio of the MFI of Dox or Rho123 with the addition of the likely inhibitor to the MFI of Dox or Rho123 alone.

[8] = test system: K562 cells; assay: Rhodamine 123 intracellular accumulation assay in K562; format: cell-based; settings: 20 μM
Experimental: as §3

[9] = test system: erythrocytes; assay: Erythrocyte hemolysis assay; format: cell-based; settings: assayed at 2.5 to 20 µM
Experimental: as §4

[10] = test system: SphK2; settings: previously found, cited from earlier work
[11] = test system: SphK1; settings: previously found, cited from earlier work
[12] = MTT cytotoxicity assay in Lucena 1; format: cell-based; settings: human, Lucena 1 cells, read-out: IC50 (cytotoxicity) against Lucena 1
Experimental: as §2, §1

[13] = MTT cytotoxicity assay in K562; format: cell-based; settings: human, K562 cells, read-out: IC50 (cytotoxicity) against K562
Experimental: as §2, §1

[14] = compound 1.25 µM, FR = IC50 Dox/IC50 Dox with compound, 48 h

T1 sequence (P08183 whole entry): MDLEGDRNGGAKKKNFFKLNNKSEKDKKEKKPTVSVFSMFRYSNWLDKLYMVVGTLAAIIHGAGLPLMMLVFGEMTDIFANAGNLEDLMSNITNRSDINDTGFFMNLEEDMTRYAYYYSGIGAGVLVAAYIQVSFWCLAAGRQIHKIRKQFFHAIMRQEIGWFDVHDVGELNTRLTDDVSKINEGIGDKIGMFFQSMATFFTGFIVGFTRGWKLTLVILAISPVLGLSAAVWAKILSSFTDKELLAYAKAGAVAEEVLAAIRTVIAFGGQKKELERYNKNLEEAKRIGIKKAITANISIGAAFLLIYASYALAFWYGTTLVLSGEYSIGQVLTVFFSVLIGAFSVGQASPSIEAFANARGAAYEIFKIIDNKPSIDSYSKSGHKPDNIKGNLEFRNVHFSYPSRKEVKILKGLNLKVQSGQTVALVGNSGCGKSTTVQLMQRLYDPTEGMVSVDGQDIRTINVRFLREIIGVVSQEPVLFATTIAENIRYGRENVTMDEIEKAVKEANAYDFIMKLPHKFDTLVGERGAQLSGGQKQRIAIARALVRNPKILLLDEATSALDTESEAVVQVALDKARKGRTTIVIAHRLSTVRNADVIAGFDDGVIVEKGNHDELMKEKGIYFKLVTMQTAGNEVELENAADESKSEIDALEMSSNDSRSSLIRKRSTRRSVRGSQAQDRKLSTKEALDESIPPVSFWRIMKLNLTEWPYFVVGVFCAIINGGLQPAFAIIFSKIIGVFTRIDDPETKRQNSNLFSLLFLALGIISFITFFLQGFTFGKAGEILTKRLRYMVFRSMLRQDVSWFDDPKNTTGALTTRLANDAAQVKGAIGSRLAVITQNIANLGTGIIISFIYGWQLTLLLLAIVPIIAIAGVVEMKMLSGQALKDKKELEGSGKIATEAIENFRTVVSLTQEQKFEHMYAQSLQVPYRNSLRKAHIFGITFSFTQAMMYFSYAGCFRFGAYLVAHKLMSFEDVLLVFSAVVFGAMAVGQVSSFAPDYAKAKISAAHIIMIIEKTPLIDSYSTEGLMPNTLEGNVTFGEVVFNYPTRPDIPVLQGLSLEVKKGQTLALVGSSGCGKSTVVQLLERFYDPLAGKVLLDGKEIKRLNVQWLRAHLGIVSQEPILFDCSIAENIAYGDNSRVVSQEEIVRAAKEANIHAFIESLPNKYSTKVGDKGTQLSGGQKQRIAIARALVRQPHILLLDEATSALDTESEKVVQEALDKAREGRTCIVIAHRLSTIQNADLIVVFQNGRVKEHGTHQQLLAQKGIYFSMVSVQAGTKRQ

| SMILES | minimum effective concentration (MEC), Dox accumulation [3] | FIR Lucena 1 ([3]; 0.31 µM) | FIR Lucena 1 ([3]; 0.62 µM) | FIR Lucena 1 ([3]; 1.25 µM) | FIR Lucena 1 ([3]; 2.5 µM) | FIR Lucena 1 ([3]; 5 µM) | FIR Lucena 1 ([3]; 10 µM) | FIR Lucena 1 ([3]; 20 µM) | FIR K562 ([6]; compound 20 µM) | IC50 at 48 h [12] | FIR K562 ([6]; compound 10 µM) | IC50 at 48 h [13] | other results |
| --- | --- | --- | --- | --- | --- | --- | --- | --- | --- | --- | --- | --- | --- |
| c1ccc2cc(-c3ccnc(N4CCNCC4)n3)ccc2c1 [Compound 7] | – | – | – | – | 1.07 ± 0.10 | 1.19 ± 0.05 | 1.42 ± 0.02 | 2.23 ± 0.26 | 1.20 ± 0.06 | 17.9 ± 0.55 µM | 1.10 ± 0.08 | – | – |
| NCCN1CCN(c2nccc(-c3ccc(Cl)cc3)n2)CC1 [Compound 10] | 1.25 µM | – | 1.06 ± 0.04 | 1.11 ± 0.03 | 1.26 ± 0.04 | 1.41 ± 0.09 | 1.30 ± 0.05 | 1.72 ± 0.14 | 1.18 ± 0.03 | – | 0.98 ± 0.06 | – | – |
| COc1cc2cc(COc3nccc(-c4ccc(Cl)cc4)n3)c(=O)[nH]c2cc1OC [Compound 11] | 1.25 µM | – | 1.02 ± 0.02 | 1.14 ± 0.02 | 1.23 ± 0.04 | 1.38 ± 0.07 | 1.30 ± 0.07 | 2.87 ± 0.55 | 1.44 ± 0.03 | 10.7 ± 0.15 µM | 1.01 ± 0.02 | 3.8 ± 0.1 µM | – |
| COC(=O)c1ccccc1-c1c2ccc(=N)cc-2oc2cc(N)ccc12 [Rhodamine 123, reference compound] | – | – | – | – | – | – | – | – | – | – | – | – | Rho123 fluorescence intensity, fold lower in Lucena 1 with respect to K562 [7]: 5.87 fold |
| COc1cccc2c1C(=O)c1c(O)c3c(c(O)c1C2=O)C[C@@](O)(C(=O)CO)C[C@@H]3O[C@H]1C[C@H](N)[C@H](O)[C@H](C)O1 [doxorubicin, reference compound] | – | – | – | – | – | – | – | – | – | 23 ± 5.41 µM | – | 0.64 ± 0.13 µM | – |

More lines, main results first:

| minimum effective concentration (MEC), Dox accumulation [3] | FIR Lucena 1 ([3]; 0.31 µM) | FIR Lucena 1 ([3]; 0.62 µM) | FIR Lucena 1 ([3]; 1.25 µM) | FIR Lucena 1 ([3]; 2.5 µM) | FIR Lucena 1 ([3]; 5 µM) | FIR Lucena 1 ([3]; 10 µM) | FIR Lucena 1 ([3]; 20 µM) | SMILES | FIR K562 ([6]; compound 20 µM) | IC50 at 48 h [12] | FIR K562 ([6]; compound 10 µM) | IC50 at 48 h [13] | other results |
| --- | --- | --- | --- | --- | --- | --- | --- | --- | --- | --- | --- | --- | --- |
| 0.31 µM | 1.12 ± 0.02 | 1.29 ± 0.08 | 1.22 ± 0.03 | 1.26 ± 0.01 | 1.23 ± 0.05 | 1.24 ± 0.10 | 1.42 ± 0.09 | COc1cc2cc(CNc3ccc(Nc4nccc(-c5ccc6ccccc6c5)n4)cc3)c(=O)[nH]c2cc1OC [Compound 5c] | 0.95 ± 0.02 | – | – | – | fold reversal (FR) of Dox resistance ([1]; compound 40 nM): 1.30 ± 0.05; fold reversal (FR) of Dox resistance [1, 14]: 5.16 ± 0.60; lowest co-administered concentration significantly increasing doxorubicin toxicity [1]: 0.04 µM; IC50 (cytotoxicity) against K562 [2]: non-toxic; FIR Lucena 1 ([3]; 0.16 µM): 0.99 ± 0.07; IC50 (cytotoxicity) against Lucena 1 [4]: non-toxic; inhibition at 20 µM [5]: 21%; minimum effective concentration (MEC), Rho123 accumulation [7]: 0.62 µM; FIR Rho123 [7]: 1.36 ± 0.04; FIR Rho123 (fold more Rho123 than untreated cells) [7]: 2.72 ± 0.10; Rho123 accumulation in K562 (result in words) [8]: no increase; concentrations at which the erythrocyte membrane was not altered [9]: lower than 10 µM |
| 0.62 µM | 1.00 ± 0.01 | 1.11 ± 0.03 | 1.19 ± 0.07 | 1.32 ± 0.08 | 1.32 ± 0.09 | 1.49 ± 0.20 | 1.68 ± 0.12 | COc1cc2cc(CN3CCN(c4nccc(-c5ccc(Cl)cc5)n4)CC3)c(=O)[nH]c2cc1OC [Compound 6c] | 0.79 ± 0.007 | – | – | – | IC50 against SphK2 [10]: no activity; IC50 against SphK1 [11]: no activity |
| 0.31 µM | 1.10 ± 0.01 | 1.21 ± 0.01 | 1.18 ± 0.03 | 1.26 ± 0.04 | 1.26 ± 0.04 | 1.25 ± 0.04 | 1.43 ± 0.10 | COc1ccc2[nH]c(=O)c(CN3CCN(c4nccc(-c5ccc6ccccc6c5)n4)CC3)cc2c1 [Compound 7b] | 0.88 ± 0.02 | – | – | – | fold reversal (FR) of Dox resistance ([1]; compound 80 nM): 1.51 ± 0.23; fold reversal (FR) of Dox resistance [1, 14]: 6.90 ± 2.84; lowest co-administered concentration significantly increasing doxorubicin toxicity [1]: 0.08 µM; IC50 (cytotoxicity) against K562 [2]: non-toxic; FIR Lucena 1 ([3]; 0.16 µM): 1.04 ± 0.02; IC50 (cytotoxicity) against Lucena 1 [4]: non-toxic; IC50 ([10]; read-out: IC50 against SphK2): > 650 µM; inhibition at 20 µM [5]: 12%; IC50 ([11]; read-out: IC50 against SphK1): > 650 µM; minimum effective concentration (MEC), Rho123 accumulation [7]: 0.62 µM; FIR Rho123 [7]: 1.37 ± 0.06; FIR Rho123 (fold more Rho123 than untreated cells) [7]: 3.05 ± 0.16; Rho123 accumulation in K562 (result in words) [8]: no increase; concentrations at which the erythrocyte membrane was not altered [9]: < 20 µM |
| 0.62 µM | 1.08 ± 0.05 | 1.22 ± 0.07 | 1.24 ± 0.05 | 1.23 ± 0.02 | 1.27 ± 0.04 | 1.29 ± 0.11 | 1.45 ± 0.10 | COc1cc2cc(CN3CCN(c4nccc(-c5ccc6ccccc6c5)n4)CC3)c(=O)[nH]c2cc1OC [Compound 7c] | 1.04 ± 0.03 | 10.2 ± 0.23 µM | – | 6.7 ± 0.2 µM | – |
| 1.25 µM | – | 1.04 ± 0.03 | 1.13 ± 0.03 | 1.21 ± 0.02 | 1.30 ± 0.08 | 1.63 ± 0.17 | 2.36 ± 0.25 | NCCN1CCN(c2nccc(-c3ccc4ccccc4c3)n2)CC1 [Compound 10a] | 1.26 ± 0.06 | 17.1 ± 0.95 µM | 1.13 ± 0.02 | 17.7 ± 0.15 µM | FIR K562 ([6]; compound 5 µM): 0.98 ± 0.01 |
